For 6 compounds, IC50 results are on record in patent US20150152083A1, “Compounds and Compositions for Modulating EGFR Activity” (IRM LLC, A Delaware Limited Liability Company, priority 2012, published 2015).

The target of assay [1] is T1, EGFR(L858R/T790M) (Homo sapiens, UniProt P00533, L858R/T790M). Put plainly: EGFR target modulation in engineered NIH3T3 cell lines (phospho-EGFR AlphaLISA). On the set-up: host or cells: NIH3T3. As to conditions: NIH3T3 cells expressing human EGFR L858R/T790M; 3 hours compound. It is filed as cell-based. On the procedure:
(§1) EGFR Target Modulation in Engineered NIH3T3 Cell Lines
(§2) NIH3T3 cell lines expressing human EGFR (WT, L858R, and L858RT790M) (obtained from Matthew Meyerson's Lab at DFCI) were maintained in 10% FBS/DMEM supplemented with 100 μg/ml Penicillin/Streptomycin (Hyclone #SV30010) and 2 μg/ml Puromycin. The cells were harvested with 0.05% Trypsin/EDTA (Hyclone #SH30236.01), re-suspended in 5% FBS/DMEM Pen/Strep without Puromycin and plated at 9,000 cells per well in 50 μl of media in a 384-well black plate with clear bottoms (Greiner #789068G). The cells were allowed to incubate overnight in a 37° C., 5% CO2 humidified tissue culture incubator. A 12-point test compound curve was prepared by serial diluting a 10 μM stock 1:3 in DMSO in a 384-well compound plate (Greiner #789201L). The serial diluted compounds were transferred to the plate containing cells by using a 50 nl Pin Head device (Perkin Elmer) and the cells were placed back in the incubator for 3 hours. Only the EGFR WT-expressing cells were induced with 50 ng/ml EGF (Preprotech #AF-100-15) for 5 minutes before lysis. The media was removed and cells were lysed in 25 μl of Lysis buffer containing protease and phosphatase inhibitors (1% Triton X-100, 20 mM Tris, pH 7.5, 1 mM EDTA, 1 mM EGTA, 150 mM NaCl, 1× complete cocktail inhibitor (Roche #11 697 498 001), 1× Phosphatase Inhibitor Cocktail Set II and Set III (Sigma #P5726 and #P0044)). The plates were shaken at 4° C. for 5 minutes with foil top at maximum speed. An aliquot of 5 μl from each well was transferred to ProxiPlate™ 384-well Plus plates (PE #6008289). The plates were sealed with a foil top and frozen at −80° C. and thawed when needed.
(§3) The frozen aliquots were thawed and briefly centrifuged. All antibodies and beads were diluted in 1× AlphaLISA HiBlock Buffer (PE #AL004C). Biotinylated anti-phospho-EGFR (Y1068) (Cell Signaling #4031) was incubated with the lysate for 1 hour at room temperature at 1 nM final concentration. Goat anti-total EGFR (R&D Systems #AF231) was added and allowed to equilibrate for 1 hour at room temperature at 1 nM final concentration. Then, 10 μl of mixed beads (AlphaScreen Streptavidin Donor Beads (PE #6760002S) and AlphaLISA anti-goat IgG Acceptor Beads (PE #AL107C)) was equilibrated for 1.5 hours before reading on EnVision plate reader using the built-in settings for AlphaScreen.
(§4) Cells untreated (L858R and L858RT790M) or EGF-induced (WT) were set to 100% maximum response. For a negative control, 10 μM HKI-272 was used to normalize data to 0% of maximum response. With these parameters, the IC50's for each compound in each cell line was calculated using non-linear curve fitting analysis.
Target sequence in this assay (P00533 25-1210 T790M/L858R): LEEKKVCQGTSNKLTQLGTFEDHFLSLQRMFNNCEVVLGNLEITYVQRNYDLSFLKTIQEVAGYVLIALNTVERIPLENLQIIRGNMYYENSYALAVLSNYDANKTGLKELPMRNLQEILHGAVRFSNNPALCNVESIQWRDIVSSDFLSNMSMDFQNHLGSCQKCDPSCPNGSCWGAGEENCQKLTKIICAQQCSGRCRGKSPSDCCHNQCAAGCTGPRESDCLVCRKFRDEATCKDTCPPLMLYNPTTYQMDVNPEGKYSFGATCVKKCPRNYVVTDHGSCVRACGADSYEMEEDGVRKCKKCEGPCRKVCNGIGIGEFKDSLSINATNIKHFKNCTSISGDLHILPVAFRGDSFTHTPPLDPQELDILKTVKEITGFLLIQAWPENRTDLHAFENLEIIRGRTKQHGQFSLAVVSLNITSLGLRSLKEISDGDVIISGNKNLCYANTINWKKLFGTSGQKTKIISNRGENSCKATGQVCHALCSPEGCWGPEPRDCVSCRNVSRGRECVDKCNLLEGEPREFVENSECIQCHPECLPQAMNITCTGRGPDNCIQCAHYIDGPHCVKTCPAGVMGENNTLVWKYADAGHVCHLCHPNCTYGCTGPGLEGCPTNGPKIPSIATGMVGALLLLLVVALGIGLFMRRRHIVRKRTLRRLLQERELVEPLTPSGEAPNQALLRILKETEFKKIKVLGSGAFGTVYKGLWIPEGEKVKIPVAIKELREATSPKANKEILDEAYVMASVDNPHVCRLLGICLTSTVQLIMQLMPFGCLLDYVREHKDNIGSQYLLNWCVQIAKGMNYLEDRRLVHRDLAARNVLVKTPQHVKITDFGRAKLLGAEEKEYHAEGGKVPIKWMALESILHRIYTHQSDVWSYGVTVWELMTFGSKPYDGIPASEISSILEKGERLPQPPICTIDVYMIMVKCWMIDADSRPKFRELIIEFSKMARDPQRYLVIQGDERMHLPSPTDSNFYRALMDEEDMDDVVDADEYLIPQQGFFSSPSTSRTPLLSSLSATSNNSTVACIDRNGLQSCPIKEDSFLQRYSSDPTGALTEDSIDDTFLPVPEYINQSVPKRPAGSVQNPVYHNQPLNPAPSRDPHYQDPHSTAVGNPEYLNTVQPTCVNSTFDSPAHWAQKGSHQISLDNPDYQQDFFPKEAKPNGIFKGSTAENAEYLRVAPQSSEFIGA
(In Alpha technology, singlet oxygen from a donor bead excites a nearby acceptor bead.)

A further assay concerns the target T2, EGFR (L858R) (Homo sapiens, UniProt P00533, L858R).
T2 construct: host or cells: NIH3T3
The description is as above. It is filed as cell-based. The note with it: NIH3T3 cells expressing human EGFR L858R; 3 hours compound. How it is done: as §1, §2, §3, §4

Another assay concerns the target T3, EGFR (WT) (Homo sapiens, UniProt P00533).
T3 construct: host or cells: NIH3T3
The assay is described as above. It is filed as cell-based. As to conditions: NIH3T3 cells expressing human EGFR WT; 3 hours compound; induced with 50 ng/ml EGF. How it is done: as §1, §2, §3, §4

Assay [2] deals with T1, EGFR(L858R/T790M). As to the kind of experiment: EGFR biochemical assay (HTRF), IC50 determination. As to conditions: 10 μM ATP. On the set-up: purchased from Carna (GST-a.a. 669-1210); purchased Carna. How it is done: All EGFR biochemical assays were carried out by HTRF method. The EGFR(L858RT790M) enzyme were purchased from Carna (GST-a.a. 669-1210). The substrate peptide Biotin-TK-peptide was purchased from Cis-Bio. The reaction mixtures contained 1 μM peptide substrate, 10 μM ATP, and 0.036 nM EGFR(L858RT790M) in the reaction buffer (50 mM HEPES pH 7.1, 10 mM MgCl2, 0.01% BSA, 1 mM TCEP and 0.1 mM Na3VO4) at a final volume of 10 μL. All reactions were carried out at room temperature in white ProxiPlate™ 384-well Plus plates (PerkinElmer) and were quenched with 5 μL of 0.2 M EDTA at 60 min Five μL of the detection reagents (2.5 ng PT66K and 0.05 μg SAXL per well) were added, the plates were incubated at room temperature for 1 h and then read in EnVision reader. […] For no-preincubation condition, the compounds were added to the assay solution containing ATP and peptide, and the reaction was initiated by addition of enzyme. For pre-incubation conditions, the compounds were added to the assay solution containing enzyme and peptide, and pre-incubated at room temperature for desired period of time, then the reaction was initiated by addition of ATP.
Target sequence in this assay (P00533 669-1210 T790M/L858R): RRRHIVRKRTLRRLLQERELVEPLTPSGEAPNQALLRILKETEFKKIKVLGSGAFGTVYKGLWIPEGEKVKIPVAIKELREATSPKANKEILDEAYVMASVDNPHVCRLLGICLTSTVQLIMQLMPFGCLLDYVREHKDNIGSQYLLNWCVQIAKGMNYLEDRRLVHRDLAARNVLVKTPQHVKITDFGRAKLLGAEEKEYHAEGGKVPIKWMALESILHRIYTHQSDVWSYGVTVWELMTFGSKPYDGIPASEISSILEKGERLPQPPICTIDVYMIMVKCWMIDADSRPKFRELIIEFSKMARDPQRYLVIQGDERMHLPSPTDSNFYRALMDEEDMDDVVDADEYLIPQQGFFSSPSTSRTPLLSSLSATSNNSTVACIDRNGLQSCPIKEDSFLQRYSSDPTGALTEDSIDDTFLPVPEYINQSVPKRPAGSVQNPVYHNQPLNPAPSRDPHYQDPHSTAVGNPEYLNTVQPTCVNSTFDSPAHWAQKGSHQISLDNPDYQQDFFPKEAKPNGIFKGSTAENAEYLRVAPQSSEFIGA

The mark [3] stands for this setting: EGFR (L858R/T790M) IC50 (μM) 90 min pre-incubation, 90 min pre-incubation.
[4] abbreviates: no pre-incubation, read-out: EGFR (L858R/T790M) IC50 (μM) No pre-incubation.

Molecules are shown by their SMILES.

T2 sequence (P00533 25-1210 L858R): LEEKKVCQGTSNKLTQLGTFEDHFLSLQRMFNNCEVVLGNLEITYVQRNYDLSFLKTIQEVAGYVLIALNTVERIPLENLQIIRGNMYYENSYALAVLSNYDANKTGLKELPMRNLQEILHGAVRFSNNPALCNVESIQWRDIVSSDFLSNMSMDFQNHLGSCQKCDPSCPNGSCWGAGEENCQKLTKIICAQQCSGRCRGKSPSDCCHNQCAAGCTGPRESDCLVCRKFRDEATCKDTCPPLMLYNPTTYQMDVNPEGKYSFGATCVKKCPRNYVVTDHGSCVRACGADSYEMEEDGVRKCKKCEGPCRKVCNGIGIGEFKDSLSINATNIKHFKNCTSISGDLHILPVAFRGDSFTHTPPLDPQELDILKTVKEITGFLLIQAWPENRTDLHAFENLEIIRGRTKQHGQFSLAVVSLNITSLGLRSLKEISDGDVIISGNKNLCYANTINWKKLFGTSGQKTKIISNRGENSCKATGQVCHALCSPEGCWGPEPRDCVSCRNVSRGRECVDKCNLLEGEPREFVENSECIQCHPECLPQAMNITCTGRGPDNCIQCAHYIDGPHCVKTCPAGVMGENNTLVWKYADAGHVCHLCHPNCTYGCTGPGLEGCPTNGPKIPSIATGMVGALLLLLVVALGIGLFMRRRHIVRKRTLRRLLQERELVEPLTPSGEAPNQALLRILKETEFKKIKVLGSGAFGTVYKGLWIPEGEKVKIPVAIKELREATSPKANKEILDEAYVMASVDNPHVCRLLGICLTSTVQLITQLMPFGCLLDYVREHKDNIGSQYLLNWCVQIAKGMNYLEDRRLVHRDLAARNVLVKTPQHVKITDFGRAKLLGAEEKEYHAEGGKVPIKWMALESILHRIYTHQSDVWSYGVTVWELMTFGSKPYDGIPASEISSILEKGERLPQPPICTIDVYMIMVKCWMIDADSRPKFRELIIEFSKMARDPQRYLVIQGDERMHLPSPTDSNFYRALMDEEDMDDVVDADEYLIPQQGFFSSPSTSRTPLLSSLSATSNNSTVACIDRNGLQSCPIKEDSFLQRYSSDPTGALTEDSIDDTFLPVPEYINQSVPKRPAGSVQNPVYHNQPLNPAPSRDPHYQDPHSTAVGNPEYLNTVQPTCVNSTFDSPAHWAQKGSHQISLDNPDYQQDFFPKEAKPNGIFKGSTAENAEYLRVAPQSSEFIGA
T3 sequence (P00533 25-1210): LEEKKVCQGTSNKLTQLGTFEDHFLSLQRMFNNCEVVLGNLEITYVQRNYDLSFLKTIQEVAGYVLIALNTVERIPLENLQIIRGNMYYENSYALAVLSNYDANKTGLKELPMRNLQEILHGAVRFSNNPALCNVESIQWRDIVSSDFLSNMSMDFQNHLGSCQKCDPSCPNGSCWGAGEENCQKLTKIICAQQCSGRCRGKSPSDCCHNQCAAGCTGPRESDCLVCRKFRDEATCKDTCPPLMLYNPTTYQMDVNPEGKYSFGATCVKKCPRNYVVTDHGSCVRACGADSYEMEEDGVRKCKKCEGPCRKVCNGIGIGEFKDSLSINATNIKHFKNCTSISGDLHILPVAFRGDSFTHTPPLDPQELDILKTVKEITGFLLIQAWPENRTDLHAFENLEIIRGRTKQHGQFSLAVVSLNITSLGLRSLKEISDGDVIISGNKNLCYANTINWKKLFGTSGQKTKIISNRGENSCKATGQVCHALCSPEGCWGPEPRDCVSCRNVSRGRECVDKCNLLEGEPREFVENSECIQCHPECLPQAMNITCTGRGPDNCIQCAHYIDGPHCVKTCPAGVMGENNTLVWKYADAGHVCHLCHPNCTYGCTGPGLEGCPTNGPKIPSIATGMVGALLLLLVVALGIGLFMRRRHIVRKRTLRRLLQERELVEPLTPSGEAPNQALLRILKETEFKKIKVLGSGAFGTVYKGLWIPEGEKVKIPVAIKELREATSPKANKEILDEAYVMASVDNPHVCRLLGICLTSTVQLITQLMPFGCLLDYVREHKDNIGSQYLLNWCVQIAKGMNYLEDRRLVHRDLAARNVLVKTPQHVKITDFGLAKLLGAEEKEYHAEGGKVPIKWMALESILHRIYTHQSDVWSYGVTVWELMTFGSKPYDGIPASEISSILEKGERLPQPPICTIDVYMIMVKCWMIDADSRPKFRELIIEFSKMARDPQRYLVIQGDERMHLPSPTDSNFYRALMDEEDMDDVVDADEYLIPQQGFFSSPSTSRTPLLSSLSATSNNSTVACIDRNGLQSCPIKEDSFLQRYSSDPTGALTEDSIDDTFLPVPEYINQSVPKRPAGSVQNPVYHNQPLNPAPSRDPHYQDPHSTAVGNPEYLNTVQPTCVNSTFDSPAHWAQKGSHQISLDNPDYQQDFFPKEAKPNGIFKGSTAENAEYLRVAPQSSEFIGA

As to `C=CC(=O)Nc1cccc(-n2c(NC(=O)c3cccc(C(F)(F)F)c3)nc3cc(CO)ccc32)c1` [Example 3, N-(1-(3-acrylamidophenyl)-5-(hydroxymethyl)-1H-benzo[d]imidazol-2-yl)-3-(trifluoromethyl)benzamide], the IC50 was 0.036 µM on EGFR(L858R/T790M) [1]; 0.45 µM at EGFR (L858R); > 10 µM against EGFR (WT); 0.003 µM at EGFR(L858R/T790M) [2] (setting [3]); 0.028 µM on EGFR(L858R/T790M) [2] (setting [4]).
On the same counts, the results for `C=CC(=O)Nc1cccc(-n2c(NC(=O)c3cccc(C(F)(F)F)c3)nc3cc(COCC)ccc32)c1` [Example 4, N-(1-(3-acrylamidophenyl)-5-(ethoxymethyl)-1H-benzo[d]imidazol-2-yl)-3-(trifluoromethyl)benzamide] are 0.1 µM, 1.1 µM, > 10 µM, 0.005 µM and 0.071 µM.
Regarding `C=CC(=O)Nc1cccc(-n2c(NC(=O)c3cccc(C(F)(F)F)c3)nc3cc(COC)ccc32)c1` [Example 5-1, N-[5-(methoxymethyl)-1-[3-(prop-2-enamido)phenyl]-1H-1,3-benzodiazol-2-yl]-3-(trifluoromethyl)benzamide], the IC50 on EGFR(L858R/T790M) [1] was 0.02 µM; against EGFR (L858R), 0.86 µM; at EGFR (WT), > 10 µM; against EGFR(L858R/T790M) [2] (setting [3]) it was < 0.001 µM; at EGFR(L858R/T790M) [2] (setting [4]) it was 0.022 µM.
In the case of `C=CC(=O)Nc1cccc(-n2c(NC(=O)c3cccc(C(F)(F)F)c3)nc3cc(CN4CCCC4)ccc32)c1` [Example 5-2, N-[1-[3-(prop-2-enamido)phenyl]-5-(pyrrolidin-1-ylmethyl)-1H-1,3-benzodiazol-2-yl]-3-(trifluoromethyl)benzamide], the IC50 against EGFR(L858R/T790M) [1] is 0.013 µM; against EGFR (L858R), 0.18 µM; at EGFR (WT) it was > 10 µM; on EGFR(L858R/T790M) [2] (setting [3]), 0.007 µM; at EGFR(L858R/T790M) [2] (setting [4]), 0.039 µM.
Consider `C=CC(=O)Nc1cccc(-n2c(NC(=O)c3cccc(C(F)(F)F)c3)nc3cc(CN4CCOCC4)ccc32)c1` [Example 5-3, N-[5-(morpholin-4-ylmethyl)-1-[3-(prop-2-enamido)phenyl]-1H-1,3-benzodiazol-2-yl]-3-(trifluoromethyl)benzamide], for which the IC50 on EGFR(L858R/T790M) [1] is 0.026 µM; at EGFR (L858R), 0.25 µM; on EGFR (WT), > 10 µM; on EGFR(L858R/T790M) [2] (setting [3]), 0.003 µM; at EGFR(L858R/T790M) [2] (setting [4]), 0.072 µM.
For `C=CC(=O)NCCCn1c(NC(=O)c2cccc(C(F)(F)F)c2)nc2cc(C)ccc21` [Example 8-4, N-{5-methyl-1-[3-(prop-2-enamido)propyl]-1H-1,3-benzodiazol-2-yl}-3-(trifluoromethyl)benzamide], the IC50 is 0.83 µM against EGFR(L858R/T790M) [1]; > 10 µM at EGFR (L858R); > 10 µM against EGFR (WT); 0.046 µM on EGFR(L858R/T790M) [2] (setting [3]); 0.62 µM at EGFR(L858R/T790M) [2] (setting [4]).
